“Also recorded” adds a separate entry of the source. Square brackets hold non-standard residues; d marks the D form. Peptide text beside a SMILES is read from it. * marks the point of attachment. ξ: configuration not given here. β3hF = N[C@H](CC(=O)O)Cc1ccccc1; Ile(3ξ) = CCC(C)[C@H](N)C(=O)O; X1 = CC(C)C(CN)C(=O)*
Assays:
[1] = test system: angiotensinogen (AGT) and AT1 receptor (AT1R) expression in human vascular smooth muscle cells; experiment: expression of angiotensinogen and AT1 receptors (mRNA) in primary human vascular smooth muscle cell cultures; format: cell-based; conditions: for inhibition of the angiotensinogen (and AT1 receptor) response to angiotensin IV: 100 nM angiotensin IV, antagonist at increasing concentrations, given 30 minutes before angiotensin IV (FIG. 3)
Experimental: This effect may be measured by analyzing messenger RNA as well as the corresponding proteins.
Inhibition of these effects of angiotensin IV by candidate compounds is the foundation of the model. These cellular models encompass a screening approach as well as quantitative approaches. Angiotensin IV is used at a concentration of 100 nM, a concentration at which its binding to angiotensin II receptors is minimal.
(§1) The inventors used primary cultures and vascular muscle smooth cell lines of various species (man, rat, mouse); all cell lines in which angiotensin IV exerts stimulatory effects on the expression of angiotensinogen and angiotensin II AT1 receptors may be used. The confluent smooth muscle cells are placed in a serum-free culture medium (human vascular smooth muscle medium 2 from Promocell, or any other equivalent medium), in order to block their multiplication and to synchronize them. After 24 hours of habituation in this culture medium, the medium is replaced by fresh medium to which the various test substances are added according to the order adapted to the experimental protocol. Measurements are taken after 24 hours of treatment in the case of analyses of angiotensinogen and AT1 receptor expression. The antagonists are applied to the cells 30 minutes before angiotensin IV. The cells are exposed to 100 μU/ml of insulin to measure glucose uptake.
The results are the mean of pairs of measurements taken in human vascular smooth muscle cells from six patients.

[2] = test system: human vascular smooth muscle cells; experiment: insulin-induced 3H-deoxyglucose uptake in human vascular smooth muscle cells; format: cell-based; conditions: for amplitude of maximum effect / lower plateau: inhibition of insulin-induced deoxyglucose uptake, 4-parameter logistic regression (FIG. 4); for reversion of the inhibition by angiotensin IV of insulin-induced glucose uptake: antagonist pretreatment, cells from five patients (FIG. 5)
Description: This effect by angiotensin IV is not blocked by angiotensin II AT1 receptor antagonists or by angiotensin II AT2 receptor antagonists.
Angiotensin IV inhibits insulin-induced glucose uptake in vascular smooth muscle cells by a mechanism independent of angiotensin II AT1 and AT2 receptors.
as §1
The results are the mean of pairs of measurements taken in cells from six patients.

## CC[C@H](C)[C@H](NC(=O)[C@H](Cc1ccc(O)cc1)NC(=O)[C@@H](N)C(C)C)C(=O)N[C@@H](Cc1cnc[nH]1)C(=O)N1CCC[C@H]1C(=O)N[C@@H](Cc1ccccc1)C(=O)O [angiotensin IV, Val-Tyr-Ile-His-Pro-Phe]
[1]
  effect on IRAP expression: reduces
[1]; independent of AT1 receptors (FIG. 2)
  effect on expression of angiotensinogen and AT1 receptors: stimulating
[2]
  amplitude of maximum effect: 58.0%±2.3%
  lower plateau: 41.9±1.4

## CCC(C)[C@H](NC(=O)[C@H](Cc1ccc(O)cc1)NC(=O)C(CN)C(C)C)C(=O)N[C@@H](Cc1c[nH]cn1)C(=O)N1CCC[C@H]1C(=O)N[C@H](CC(=O)O)Cc1ccccc1 (stereo partly drawn) [compound AL-11, H-β^2hVal-Tyr-Ile-His-Pro-β^3hPhe-OH] (X1-Y[Ile(3ξ)]HP[β3hF]-OH)
[1]
  inhibition of the angiotensinogen (and AT1 receptor) response to angiotensin IV: inhibition; also recorded: much more powerful in preventing the response
[2]
  reversion of the inhibition by angiotensin IV of insulin-induced glucose uptake: reversion

## CC(C)[C@H](N)CN[C@@H](Cc1ccc(O)cc1)C(=O)N[C@H](CN[C@@H](Cc1c[nH]cn1)C(=O)N1CCC[C@H]1C(=O)N[C@@H](Cc1ccccc1)C(=O)O)C(C)C [divalinal, N-Val-(CH2—NH)-Tyr-Val(CH2—NH)-His-Pro-Phe]
[1]
  inhibition of the angiotensinogen (and AT1 receptor) response to angiotensin IV: inhibition; also recorded: weaker depressor of the maximum response
[2]
  reversion of the inhibition by angiotensin IV of insulin-induced glucose uptake: reversion

## Angiotensin II: angiotensin peptide hormone acting on AT1 and AT2 receptors, used for comparison (DRVYIHPF; Angiotensin-2; UniProt P01019 25-32, looked up)
[2]
  amplitude of maximum effect: 42.2%±6.4%
  lower plateau: 56.3±4.5

## LVV-hemorphin-7
[1]
  inhibition of the angiotensinogen (and AT1 receptor) response to angiotensin IV: no activity
[2]
  reversion of the inhibition by angiotensin IV of insulin-induced glucose uptake: no activity

Reference: US20090012005A1, “Use of an angiotensin IV antagonist to treat insulin resistance or cardiovascular risk related to metabolic syndrome” (priority 2007, published 2009)
